# In patent US20130136693A1, “Crystal Forms of 2--Adenosine” (King Pharmaceuticals Research and Development, Inc, priority 2008, published 2013):
# Assays:
# Format in all cases: physicochemical
# [1] = competitive slurry experiments (XRPD of remaining solids); conditions: 25 °C, 24 h
# Description: Two different types of slurry experiments may be performed, i.e., competitive and noncompetitive slurry experiments. Competitive slurry experiments are performed by mixing excess amounts of non-solvated polymorphic forms together in different solvents and agitating the mixture isothermally. These types of slurry experiments may be used to determine which form is more thermodynamically stable (under the conditions tested).
# When competitive slurry experiments are performed, the nucleation step is generally bypassed. Because the two (or more) forms placed into contact with the solvent have different solubilities, particles of the form with the lower solubility grow at the expense of the more soluble form. This occurs since the more soluble form is saturated, and the less soluble form is supersaturated.
# (§1) In general, slurry experiments are performed by agitating approximately 0.01 g to 2.5 g of material in 0.5 mL to 50 mL of slurry solvent. Uniform agitation and temperature control are accomplished using, e.g., Reacti-Therm heating modules and small Teflon coated stir bars. The duration of the slurry experiments is often around 24 h (although in some cases the experiments may be continued for several weeks). At the end of the slurry experiment, remaining undissolved solids are collected by vacuum filtration. To avoid inducing any type of physical change, the solids are not subjected to additional drying before the XRPD analysis.
# In addition to the pure solvent noncompetitive slurry experiments performed, three competitive slurry experiments in Table 8 are performed at room temperature. These slurry experiments are composed of an approximately 50/50 mixture of Form I and Form II solids. Three different solvents are used to perform the competitive slurry experiments: DCM, i-PrOAc and EtOAc.
# [2] = drying of crystals, crystal form checked by XRPD
# Description: Furthermore, TGA and ^1H-NMR indicate that Form I crystals may also contain approximately 4 wt-% of ethanol (FIG. 1A).
# In accordance with the TG data, after a few minutes at 125° C. in the KF oven, most of the weight loss from ethanol and water is complete affording Form I crystals in an anhydrous form (FIG. 1B). […] A comparison of the calorimetric behavior of the anhydrous Form I crystals and the Form I crystals containing residual solvents (“undried”) is summarized in Table 1:
# Form II crystal form may be obtained in a hydrated form or in an anhydrous form. For example, slow crystallization from lower alcohols such as MeOH and EtOH in the presence of residual water provides hydrated Form II crystals.
# [3] = moisture sorption analysis; conditions: relative humidity of about 94%, 14 days, 25° C.
# [4] = non-competitive slurry experiments (XRPD of remaining solids); conditions: for Final Form (XRPD): 4 h
# Description: In an alternative aspect of the present invention, solid forms of binodenoson may be suspended in a suitable solvent at a temperature of at least 10° C., preferably at a temperature ranging from about 25° C. to about 60° C. Under suitable conditions, a suspension/slurry results in which particles of solid are dispersed, and remain incompletely dissolved in the solvent. Preferably, the solids are maintained in a state of suspension by agitation, e.g., by shaking or stirring. The suspension/slurry is then kept at a temperature of 10° C. or higher, e.g., at a temperature ranging from about 25° C. to about 60° C., for a time sufficient to effect transformation of the starting solids into product crystals. The product crystals may then be isolated and dried using conventional methods in the art. In the presence of water, all crystal forms of binodenoson will convert to Form II hydrate.
# Noncompetitive slurry experiments are useful for identifying solvent mediated conditions useful for converting one crystalline form to another. In these experiments, excess material of a single crystal form is mixed with a solvent under isothermal conditions. These experiments rely on differences in solubility of the different polymorphic forms. […] Essentially, when a polymorph is suspended in a suitable solvent, a saturated solution phase (eventually) results. The solution phase is saturated with respect to the polymorphic form dissolved.
# The results of these experiments often depend on nucleation kinetics and the presence of impurities that may inhibit nuclei growth of other stable crystalline modifications.
# as §1
# [5] = solubility studies in EtOH
# Description: In the current set of results, Form I crystals readily transforms into Form II crystals in EtOAc at 60° C. for 4 h (experiment No. 7). […] Thus, Form I appears to convert to Form II, but really converts to Form II hydrate. […] Thus, in the presence of residual water, Form II is obtained in the isostructural hydrate form, whereas in a completely anhydrous system, Form I results.
smiles,measurement,setting,value
"Nc1nc(NN=CC2CCCCC2)nc2c1ncn2[C@@H]1O[C@H](CO)C(O)C1O (stereo partly drawn) [Form I & II, 2-{2-[(cyclohexyl)methylene]-hydrazino}adenosine]",Final Form (XRPD),[1]; experiment No. 11: DCM,II^b
same,Final Form (XRPD),[1]; experiment No. 12: i-PrOAc,II^b
same,Final Form (XRPD),[1]; experiment No. 13: EtOAc,II^b
"Nc1nc(NN=CC2CCCCC2)nc2c1ncn2[C@@H]1O[C@H](CO)[C@@H](O)[C@H]1O [Form I, 2-{2-[(cyclohexyl)methylene]-hydrazino}adenosine]",change of crystalline form upon drying (XRPD),"[2]; drying under nitrogen, 125° C. in the KF oven",does not change significantly
same,hygroscopicity,[3],non-hygroscopic
same,Final Form (XRPD),"[4]; experiment No. 1: EtOAc, 40 °C",amorphous
same,Final Form (XRPD),"[4]; experiment No. 2: EtOH, 40 °C",all dissolved
same,Final Form (XRPD),"[4]; experiment No. 4: i-Pr2O, 40 °C",amorphous
same,Final Form (XRPD),"[4]; experiment No. 5: MeOH, 40 °C",all dissolved
same,Final Form (XRPD),"[4]; experiment No. 7: EtOAc, 60 °C",II^b
same,thermodynamic stability relative to Form II,"[5]; when water is not present, from solubilities",thermodynamically more stable than Form II
"Nc1nc(NN=CC2CCCCC2)nc2c1ncn2[C@@H]1O[C@H](CO)[C@@H](O)[C@H]1O [Form II hydrate, 2-{2-[(cyclohexyl)methylene]-hydrazino}adenosine]",change of XRPD pattern upon drying,[2]; drying the hydrated crystals,does not change the XRPD pattern
same,solubility of the isostructural hydrate,"[5]; presence of residual water, deduced",lower solubility than that of Form I
"Nc1nc(NN=CC2CCCCC2)nc2c1ncn2[C@@H]1O[C@H](CO)[C@@H](O)[C@H]1O [Form II, 2-{2-[(cyclohexyl)methylene]-hydrazino}adenosine]",solubility compared with Form I,[5]; anhydrous Forms I and II compared in EtOH,much higher solubility
same,behaviour during solubility studies,[5]; dry EtOH,completely dissolve and recrystallize as Form I
"Nc1nc(NN=CC2CCCCC2)nc2c1ncn2[C@@H]1O[C@H](CO)[C@@H](O)[C@H]1O [Form V, 2-{2-[(cyclohexyl)methylene]-hydrazino}adenosine]",stability relative to Form I,"[4]; at 40° C., from experiment No. 6 (DCM slurry)",more stable than Form I
"Nc1nc(NN=CC2CCCCC2)nc2c1ncn2[C@@H]1O[C@H](CO)[C@@H](O)[C@H]1O [anhydrous Form I, 2-{2-[(cyclohexyl)methylene]-hydrazino}adenosine]",crystal form after moisture sorption analysis,[3],remains the same
same,weight gain in moisture sorption analysis,[3],approximately 1.3%
